What was measured:
Assay in all cases: relative viability (nuclei count vs DMSO), 5 days (fraction); higher = more cells survive
COR-L 105 = test system: COR-L 105
Method in brief: (§1)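 Lung cancer cell lines, seeded in 1536-well plates, were treated the following day by pin tool with a single drug or with five library-drug doses (not always all listed) in √10 steps on top of a fixed anchor-drug dose. Cells were fixed and nuclei stained in one step after 5 days, and nuclei were counted. Relative viability is the nuclei count for treated wells divided by that for vehicle wells, reported as medians of duplicate plates.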

NCI-H1975 = test system: NCI-H1975
Method in brief: as §1

NCI-H2009 = test system: NCI-H2009
Method in brief: as §1

ChaGo-K-1 = test system: ChaGo-K-1
Method in brief: as §1

NCI-H2087 = test system: NCI-H2087
Method in brief: as §1

NCI-H1993 = test system: NCI-H1993
Method in brief: as §1

NCI-H1792 = test system: NCI-H1792
Method in brief: as §1

NCI-H2228 = test system: NCI-H2228
Method in brief: as §1

NCI-H441 = test system: NCI-H441
Method in brief: as §1

NCI-H1355 = test system: NCI-H1355
Method in brief: as §1

H3255 = test system: H3255
Method in brief: as §1

EPLC-272H = test system: EPLC-272H
Method in brief: as §1

HCC-366 = test system: HCC-366
Method in brief: as §1

ABC-1 = test system: ABC-1
Method in brief: as §1

NCI-H322M = test system: NCI-H322M
Method in brief: as §1

CAL-12T = test system: CAL-12T
Method in brief: as §1

HCC-827 = test system: HCC-827
Method in brief: as §1

NCI-H460 = test system: NCI-H460
Method in brief: as §1

NCI-H2085 = test system: NCI-H2085
Method in brief: as §1

SK-MES-1 = test system: SK-MES-1
Method in brief: as §1

EKVX = test system: EKVX
Method in brief: as §1

## Cc1cn(-c2cc(NC(=O)c3ccc(C)c(Nc4nccc(-c5cccnc5)n4)c3)cc(C(F)(F)F)c2)cn1 [Nilotinib] + CC(C)C[C@H](NC(=O)[C@H](Cc1ccccc1)NC(=O)c1cnccn1)B(O)O [Bortezomib] (partner 0.002 µM)
COR-L 105; first compound 0.001 µM
  relative viability: 0.903
COR-L 105; first compound 0.01 µM
  relative viability: 0.812
COR-L 105; first compound 0.03162 µM
  relative viability: 0.601
COR-L 105; first compound 0.1 µM
  relative viability: 0.333
NCI-H1975; first compound 0.001 µM
  relative viability: 0.32
NCI-H1975; first compound 0.003162 µM
  relative viability: 0.315
NCI-H1975; first compound 0.01 µM
  relative viability: 0.268
NCI-H1975; first compound 0.03162 µM
  relative viability: 0.279
NCI-H1975; first compound 0.1 µM
  relative viability: 0.171
NCI-H2009; first compound 0.001 µM
  relative viability: 0.937
NCI-H2009; first compound 0.003162 µM
  relative viability: 1.14
NCI-H2009; first compound 0.01 µM
  relative viability: 1.16
NCI-H2009; first compound 0.03162 µM
  relative viability: 1.06
NCI-H2009; first compound 0.1 µM
  relative viability: 0.218
ChaGo-K-1; first compound 0.001 µM
  relative viability: 1.44
ChaGo-K-1; first compound 0.003162 µM
  relative viability: 1.05
ChaGo-K-1; first compound 0.01 µM
  relative viability: 1.14
ChaGo-K-1; first compound 0.03162 µM
  relative viability: 0.639
ChaGo-K-1; first compound 0.1 µM
  relative viability: 0.898
NCI-H2087; first compound 0.001 µM
  relative viability: 0.693
NCI-H2087; first compound 0.003162 µM
  relative viability: 1.03
NCI-H2087; first compound 0.01 µM
  relative viability: 0.762
NCI-H2087; first compound 0.03162 µM
  relative viability: 0.68
NCI-H2087; first compound 0.1 µM
  relative viability: 0.296
NCI-H1993; first compound 0.001 µM
  relative viability: 1.11
NCI-H1993; first compound 0.003162 µM
  relative viability: 0.878
NCI-H1993; first compound 0.01 µM
  relative viability: 1.06
NCI-H1993; first compound 0.03162 µM
  relative viability: 0.896
NCI-H1993; first compound 0.1 µM
  relative viability: 0.953
NCI-H1792; first compound 0.001 µM
  relative viability: 0.94
NCI-H1792; first compound 0.01 µM
  relative viability: 1.2
NCI-H1792; first compound 0.1 µM
  relative viability: 1.23
NCI-H2228; first compound 0.001 µM
  relative viability: 1.09
NCI-H2228; first compound 0.003162 µM
  relative viability: 1.23
NCI-H2228; first compound 0.01 µM
  relative viability: 1.21
NCI-H2228; first compound 0.03162 µM
  relative viability: 0.641
NCI-H2228; first compound 0.1 µM
  relative viability: 0.422
NCI-H441; first compound 0.001 µM
  relative viability: 0.33
NCI-H441; first compound 0.003162 µM
  relative viability: 0.735
NCI-H441; first compound 0.01 µM
  relative viability: 0.492
NCI-H441; first compound 0.1 µM
  relative viability: 0.219
NCI-H1355; first compound 0.001 µM
  relative viability: 1.09
NCI-H1355; first compound 0.003162 µM
  relative viability: 1.52
NCI-H1355; first compound 0.01 µM
  relative viability: 1.28
NCI-H1355; first compound 0.03162 µM
  relative viability: 1.15
NCI-H1355; first compound 0.1 µM
  relative viability: 0.639
H3255; first compound 0.001 µM
  relative viability: 0.917
H3255; first compound 0.003162 µM
  relative viability: 0.656
H3255; first compound 0.01 µM
  relative viability: 0.986
H3255; first compound 0.03162 µM
  relative viability: 0.787
H3255; first compound 0.1 µM
  relative viability: 0.558
EPLC-272H; first compound 0.001 µM
  relative viability: 1.06
EPLC-272H; first compound 0.003162 µM
  relative viability: 1.21
EPLC-272H; first compound 0.01 µM
  relative viability: 0.863
EPLC-272H; first compound 0.03162 µM
  relative viability: 0.72
EPLC-272H; first compound 0.1 µM
  relative viability: 0.429
HCC-366; first compound 0.001 µM
  relative viability: 0.88
HCC-366; first compound 0.003162 µM
  relative viability: 1.74
HCC-366; first compound 0.01 µM
  relative viability: 1.35
HCC-366; first compound 0.03162 µM
  relative viability: 0.692
HCC-366; first compound 0.1 µM
  relative viability: 0.844
ABC-1; first compound 0.001 µM
  relative viability: 0.291
ABC-1; first compound 0.003162 µM
  relative viability: 0.275
ABC-1; first compound 0.01 µM
  relative viability: 0.23
ABC-1; first compound 0.03162 µM
  relative viability: 0.28
NCI-H322M; first compound 0.001 µM
  relative viability: 1.27
NCI-H322M; first compound 0.003162 µM
  relative viability: 1.47
NCI-H322M; first compound 0.03162 µM
  relative viability: 1.18
NCI-H322M; first compound 0.1 µM
  relative viability: 1.39
CAL-12T; first compound 0.001 µM
  relative viability: 0.968
CAL-12T; first compound 0.01 µM
  relative viability: 0.919
CAL-12T; first compound 0.03162 µM
  relative viability: 0.807
CAL-12T; first compound 0.1 µM
  relative viability: 1.19
HCC-827; first compound 0.003162 µM
  relative viability: 1.19
HCC-827; first compound 0.01 µM
  relative viability: 1.08
HCC-827; first compound 0.03162 µM
  relative viability: 1.07
HCC-827; first compound 0.1 µM
  relative viability: 1.06
NCI-H460; first compound 0.001 µM
  relative viability: 0.689
NCI-H460; first compound 0.03162 µM
  relative viability: 0.627
NCI-H460; first compound 0.1 µM
  relative viability: 0.866
NCI-H2085; first compound 0.001 µM
  relative viability: 1.11
NCI-H2085; first compound 0.003162 µM
  relative viability: 1.11
NCI-H2085; first compound 0.01 µM
  relative viability: 1.27
NCI-H2085; first compound 0.03162 µM
  relative viability: 0.816
NCI-H2085; first compound 0.1 µM
  relative viability: 0.725

## CN1CCN(CCOc2cc(OC3CCOCC3)c3c(Nc4c(Cl)ccc5c4OCO5)ncnc3c2)CC1 [Saracatinib] + CC1(C)CCC(c2ccc(Cl)cc2)=C(CN2CCN(c3ccc(C(=O)NS(=O)(=O)c4ccc(N[C@H](CCN5CCOCC5)CSc5ccccc5)c(S(=O)(=O)C(F)(F)F)c4)cc3)CC2)C1 [Navitoclax] (partner 0.5 µM)
COR-L 105; first compound 0.02 µM
  relative viability: 0.795
COR-L 105; first compound 0.2 µM
  relative viability: 0.764
COR-L 105; first compound 0.6325 µM
  relative viability: 0.578
COR-L 105; first compound 2 µM
  relative viability: 0.474
NCI-H1975; first compound 0.02 µM
  relative viability: 1.17
NCI-H1975; first compound 0.6325 µM
  relative viability: 1.06
NCI-H1975; first compound 2 µM
  relative viability: 0.749
NCI-H2009; first compound 0.02 µM
  relative viability: 1.15
NCI-H2009; first compound 0.2 µM
  relative viability: 1.07
NCI-H2009; first compound 0.6325 µM
  relative viability: 1.15
NCI-H2009; first compound 2 µM
  relative viability: 1.16
ChaGo-K-1; first compound 0.02 µM
  relative viability: 1.15
ChaGo-K-1; first compound 0.2 µM
  relative viability: 0.68
ChaGo-K-1; first compound 0.6325 µM
  relative viability: 1.21
ChaGo-K-1; first compound 2 µM
  relative viability: 0.542
NCI-H2087; first compound 0.02 µM
  relative viability: 1.03
NCI-H2087; first compound 0.2 µM
  relative viability: 1.04
NCI-H2087; first compound 0.6325 µM
  relative viability: 1.14
NCI-H2087; first compound 2 µM
  relative viability: 1.05
NCI-H1993; first compound 0.02 µM
  relative viability: 0.848
NCI-H1993; first compound 0.2 µM
  relative viability: 0.78
NCI-H1993; first compound 2 µM
  relative viability: 0.769
NCI-H1792; first compound 0.02 µM
  relative viability: 0.635
NCI-H1792; first compound 0.2 µM
  relative viability: 0.489
NCI-H1792; first compound 0.6325 µM
  relative viability: 0.723
NCI-H1792; first compound 2 µM
  relative viability: 0.583
NCI-H2228; first compound 0.02 µM
  relative viability: 1.29
NCI-H2228; first compound 0.2 µM
  relative viability: 0.831
NCI-H2228; first compound 0.6325 µM
  relative viability: 1.24
NCI-H2228; first compound 2 µM
  relative viability: 0.459
NCI-H441; first compound 0.02 µM
  relative viability: 0.566
NCI-H441; first compound 0.2 µM
  relative viability: 0.681
NCI-H441; first compound 0.6325 µM
  relative viability: 0.832
NCI-H441; first compound 2 µM
  relative viability: 0.624
NCI-H1355; first compound 0.02 µM
  relative viability: 0.988
NCI-H1355; first compound 0.2 µM
  relative viability: 0.895
NCI-H1355; first compound 0.6325 µM
  relative viability: 0.928
NCI-H1355; first compound 2 µM
  relative viability: 0.901
H3255; first compound 0.02 µM
  relative viability: 0.515
H3255; first compound 0.2 µM
  relative viability: 0.393
H3255; first compound 0.6325 µM
  relative viability: 0.302
H3255; first compound 2 µM
  relative viability: 0.0997
EPLC-272H; first compound 0.02 µM
  relative viability: 1.19
EPLC-272H; first compound 0.2 µM
  relative viability: 0.976
EPLC-272H; first compound 0.6325 µM
  relative viability: 1.19
EPLC-272H; first compound 2 µM
  relative viability: 0.999
HCC-366; first compound 0.02 µM
  relative viability: 1.03
HCC-366; first compound 0.6325 µM
  relative viability: 1.08
HCC-366; first compound 2 µM
  relative viability: 0.7
NCI-H322M; first compound 0.02 µM
  relative viability: 1.28
NCI-H322M; first compound 0.2 µM
  relative viability: 1.29
NCI-H322M; first compound 0.6325 µM
  relative viability: 1.31
NCI-H322M; first compound 2 µM
  relative viability: 1.13
CAL-12T; first compound 0.02 µM
  relative viability: 1.17
CAL-12T; first compound 0.2 µM
  relative viability: 1.29
CAL-12T; first compound 0.6325 µM
  relative viability: 1.42
CAL-12T; first compound 2 µM
  relative viability: 1.27
SK-MES-1; first compound 0.02 µM
  relative viability: 1.24
SK-MES-1; first compound 0.2 µM
  relative viability: 1.16
SK-MES-1; first compound 0.6325 µM
  relative viability: 1.21
SK-MES-1; first compound 2 µM
  relative viability: 0.727
EKVX; first compound 0.02 µM
  relative viability: 0.902
EKVX; first compound 0.2 µM
  relative viability: 0.88
EKVX; first compound 0.6325 µM
  relative viability: 0.903
EKVX; first compound 2 µM
  relative viability: 0.357
HCC-827; first compound 0.02 µM
  relative viability: 0.979
HCC-827; first compound 0.2 µM
  relative viability: 0.808
HCC-827; first compound 0.6325 µM
  relative viability: 0.368
HCC-827; first compound 2 µM
  relative viability: 0.137
NCI-H460; first compound 0.02 µM
  relative viability: 1.16
NCI-H460; first compound 0.2 µM
  relative viability: 0.457
NCI-H460; first compound 0.6325 µM
  relative viability: 1.22
NCI-H460; first compound 2 µM
  relative viability: 0.813
NCI-H2085; first compound 0.02 µM
  relative viability: 1.12
NCI-H2085; first compound 0.2 µM
  relative viability: 1.05
NCI-H2085; first compound 0.6325 µM
  relative viability: 1.19
NCI-H2085; first compound 2 µM
  relative viability: 1.07
